Results on 4 compounds are retold here after patent publication US20090156565A1, “COMPOSITION AND USE THEREOF IN ENHANCING A THERAPEUTIC EFFECT OF AN ANTIEPILEPTIC DRUG” (priority 2004, published 2009).

Assay [1] concerns maximal electricroshock-induced seizures. The following applies: cited from earlier work; for protective activity of clonazepam against maximum electroshock: co-administration.
For assay [2], the system named is pilocarpine induced status-epilepticus. The assay can be described thus: Pilocarpine induced status-epilepticus in rats, mifepristone pretreatment, repeated diazepam doses until seizures stop. The format is in vivo, Adult male Sprague-Dawley rats. To be noted: for cumulative diazepam dose required to stop behavioral seizures (mean ±SEM): diazepam 6 mg/kg 1 h after SE, then 3 mg/kg every two hours. On the procedure: Mifepristone is a yellow powdery substance and is available commercially (Sigma, St. Louis, Mo.). Adult male Sprague-Dawley rats were implanted with electrodes in CA1 and frontal cortex. After one week of recovery, rats were put in recording cages and connected to EEG monitoring system for continuous video-EEG recording. Rats were then treated with mifepristone (25 mg/kg body weight) one hour before the pilocarpine injection. Thirty minutes later rats were treated with scopalamine (1 mg/kg body weight) to reduce peripheral side effects of pilocarpine. Rats were injected with pilocarpine (385 mg/kg body weight) 30 minutes after the scopalamine injection to induce status-epilepticus. One hour after declared status-epilepticus, rats were treated with diazepam (6 mg/kg) to stop the seizures. Every two hours rats were monitored for signs of behavioral seizures and if required they were injected with 3 mg/kg diazepam until they completely stop seizing. The process was repeated until the rats completely stopped seizing. […] This example was presented by inventors in an article titled “Effects of Glucocorticoid Receptor Activity on Diazepam Efficacy in Terminating Status-Epilepticus in Adult Rats,” Epilepsia Vol. 45, Suppl. 7, page 146, October, 2004.
The histogram represents mean (±SEM) cumulative diazepam dose (mg/kg body weight) required to stop behavioral seizures.

Assay [3] has the same test system. The assay can be described thus: Pilocarpine induced status-epilepticus in rats, mifepristone pretreatment, single diazepam dose, behavioral seizures (Racine stage). The format is in vivo. The following applies: not pretreated with mifepristone; single diazepam dose 7.5 mg/kg given 30 minutes after status-epilepticus; n=5.
Assay [4] deals with status epilepticus. The experiment in a line: Mifepristone given 15 minutes after onset of SE, diazepam after 1 hour, hourly monitoring for behavioral seizures. The following applies: for rats that stopped seizing: 5 and 6 hours after DZ treatment. Format: in vivo, rats. The procedure:
In this experiment, mifepristone was given 15 minutes after onset of SE, but prior to administering the first dose of diazepam (DZ). Diazepam (7.5 mg/kg) was given after 1 hour of onset of SE. After DZ treatment, rats were monitored hourly for behavioral seizures.

In assay [5] the test system is pilocarpine induced status-epilepticus. The assay can be described thus: EEG (cortex and hippocampus) 24 hours after pilocarpine injection. The format is in vivo. To be noted: rats that received mifepristone versus rats without treatment.

Structures are written as SMILES. Where two headings read alike, the source gives them in different places.

In the case of `CC(=O)O[C@]1(C(C)=O)CC[C@H]2[C@@H]3C=C(Cl)C4=CC(=O)[C@@H]5C[C@@H]5[C@]4(C)[C@H]3CC[C@@]21C` [CYP, cyproterone acetate], the “protective activity of clonazepam against maximum electroshock” value in assay [1] (male mice) was “improved”.
With `CC/C(=C(\c1ccccc1)c1ccc(OCCN(C)C)cc1)c1ccccc1` [TXF, tamoxifen], in assay [1] (female mice), the “protective activity of clonazepam against maximum electroshock” value is “improved”.
As for `CN1C(=O)CN=C(c2ccccc2)c2cc(Cl)ccc21` [diazepam], the “cumulative diazepam dose required to stop behavioral seizures (mean ±SEM)” value in assay [2] (rats that did not receive mifepristone, ±0.5, n=20) turned out to be 10.2 mg/kg. Moreover, the “rats that stopped seizing by 4 hours” value in assay [3] is recorded as 1/5. The “rats that stopped seizing” value in assay [4] (diazepam 7.5 mg/kg, rats not receiving mifepristone) is given as 33%.
Consider `CC#C[C@]1(O)CC[C@H]2[C@@H]3CCC4=CC(=O)CCC4=C3[C@@H](c3ccc(N(C)C)cc3)C[C@@]21C` [mifepristone, 17-beta-hydroxy-11-beta-(4-dimethyl-aminophenyl)-17-alpha(1-propynyl)-estra-4,9-dien-3-one], for which the “lower cumulative diazepam dose to terminate behavioral seizures compared to rats not pretreated with mifepristone” value in assay [2] (mifepristone pretreatment before pilocarpine, P<0.0005) is 26.5%. Further, the “cumulative diazepam dose required to stop behavioral seizures (mean ±SEM)” value in assay [2] (rats pretreated with mifepristone 25 mg/kg one hour before pilocarpine, ±0.41, n=14, p<0.0005) was found to be 7.5 mg/kg. The “frequency of spike-wave discharges and seizure recurrence” value in assay [5] is “lower frequency of spike-wave discharges and seizure recurrence”. In assay [4] (3 to 6 hours after DZ treatment, mifepristone 15 minutes after onset of SE, diazepam 7.5 mg/kg 1 hour after onset), the “rats that had stopped seizing, compared to rats that did not receive mifepristone” value is recorded as “significantly more”. Besides, in assay [4] (mifepristone 15 minutes after onset of SE plus diazepam 7.5 mg/kg, p<0.018, Kaplan-Meier), the “rats that stopped seizing” value is 100%. Also, in assay [1] (in combination with clonazepam, carbamazepine, phenobarbital, mice), the “effect on protective action of antiepileptic drugs against maximal electroshock-induced seizures” value is on record as “failed to affect their protective action”. Further, the “effect on electrically-induced seizures” value in assay [1] (used alone, mice) was “no effect”.
